# Experimental data as given in patent US20220143184A1, “MITOCHONDRION/RIBONUCLEIC ACID-TARGETED AND MIGRATABLE PHOTOSENSITIZED PROBE AND APPLICATION THEREOF” (SHENZHEN INSTITUTES OF ADVANCED TECHNOLOGY, priority 2019, published 2022).
# Assays:
# [1] = Singlet oxygen generation in aqueous solution, ABDA absorbance (Example 8, Experiment 2); format: physicochemical; settings: for absorbance of ABDA at 378 nm with light irradiation: 50 μM ABDA, white light 300 mW/cm^2, 0-6 min
# Procedure: (§1) Different reactive oxygen indicators were added to the photosensitized probe aqueous solution, and the fluorescence or absorption spectra were measured. Four experiments were conducted as follows:
# 50 μM ABDA was added to the aqueous solutions of PBS, 2 μM photosensitized probe, 2 μM photosensitized probe+0.8 mM RNA, and 2 μM RB (a commercial singlet oxygen-generating photosensitizer). These solutions were irradiated for 0-6 min with the white light (300 mW/cm^2) of the xenon lamp, absorption spectra at 300-600 nm were measured, and the absorbance values at 378 nm were recorded to indicate the generation rate of singlet oxygen.
# [2] = system: ribonucleic acid in the fixed cells; assay: DNase and RNase digestion experiments in fixed HeLa cells (Example 4); format: cell-based; settings: 50 μg/mL RNase 2 h, 10 μM probe 30 min
# Procedure: Preparation of fixed cells: firstly, the cover glasses (slides) covered with HeLa cells prepared in Example 2 were soaked in a 4% paraformaldehyde solution for 30 min, and then permeated with a 0.5% Triton X-100 at room temperature for 2 min to prepare fixed cells for staining.
# Three groups of the above fixed cells were taken, in which, two groups were added with a 2 U/mL RNase-free DNase and a 50 μg/mL DNase-free RNase for digestion in the incubator for 2 h individually.
# The stained slides were observed under a wide-field fluorescence microscope to record the stained regions, fluorescence distribution, and intensity changes in the cells.
# [3] = system: HeLa cells; assay: Dark toxicity to HeLa cells, MTT method (Example 16); format: cell-based; settings: 0-20 μM
# Procedure: The HeLa cells prepared in Example 2 were incubated in a 96-well plate with 1×10^4 cells per well. […] The cell viability was determined by the MTT method to determine the dark toxicity of the probe.
# [4] = Generation rate of all types of reactive oxygen species in aqueous solution, DCFH (Example 8, Experiment 1); format: physicochemical; settings: 2 μM probe + 0.8 mM RNA, white light 300 mW/cm^2, 0-180 s
# Procedure: as §1
# 10 μM 2′,7′-dichlorodihydrofluorescein (DCFH) was added to aqueous solutions of PBS, 2 μM photosensitized probe, 2 μM photosensitized probe of the application+0.8 mM RNA, and 2 μM Rose Bengal B (RB). These solutions were irradiated for 0-180 s with white light (300 mW/cm^2) of a xenon lamp with ultraviolet light filtered out, fluorescence spectra at 500-700 nm were measured under 488 nm excitation, and the fluorescence intensities at 529 nm were recorded to indicate the generation rate of all types of reactive oxygen species.
# [5] = system: HeLa cells; assay: Fluorescence imaging of live HeLa cells stained with the probe, before and after light irradiation (Example 3); format: cell-based; settings: 10 μM
# Procedure: The following three groups of experiments were performed: (1) The cells were stained in darkness for 30 min, and then irradiated by a white light of the mercury lamp for 5 min; (2) The cells were stained in darkness for 30 min, without light irradiation. (1) The cells were stained in darkness for 10 min. (2) The cells were stained in darkness for 30 min. (3) The cells were stained in darkness for 60 min. (4) The cells were stained in darkness for 120 min. (1) The cells were stained for 30 min, and then irradiated by light at 510-560 nm for 10 seconds. (2) The cells were stained for 30 min, and then irradiated by light at 510-560 nm for 1 minute. (3) The cells were stained for 30 min, and then irradiated by light at 510-560 nm for 2 min. (4) The cells were stained for 30 min, and then irradiated by light at 510-560 nm for 3 min. (5) The cells were stained for 30 min, and then irradiated by light at 510-560 nm for 4 min. (6) The cells were stained for 30 min, and then irradiated by light at 510-560 nm for 5 min. The stained cells were observed under a fluorescence microscope and a confocal laser scanning microscope and the stained regions, fluorescence distributions, and intensity changes in cells were recorded.
# [6] = system: mitochondria of HeLa cells; assay: Colocalization with Mito-Tracker Green (MTG) in HeLa cells before and after photodynamic therapy (Example 10); format: cell-based; settings: 10 μM probe, 1 μM MTG
# Procedure: The glass-bottom cell culture dishes covered with HeLa cells prepared in Example 2 were washed three times with PBS, then incubated with a 1 μM MTG in a CO2 incubator in darkness for 30 min. […] The stained cells were observed under a confocal laser scanning microscope, and fluorescence distribution and intensity changes in the cells before and after the photodynamic therapy (irradiated by mercury lamp at 510-560 nm) were recorded.
# [7] = system: Ribonucleic acid (RNA); assay: Specific fluorescence recognition of biomolecules in solution (Example 13); format: binding; settings: 2 μM probe
# Procedure: After interaction for 5 min, the fluorescence spectra under excitation at 500 nm were measured, and the fluorescence intensities at 600 nm were recorded. Biomolecules include: Ribonucleic acid (RNA, 1.6 mM), deoxyribonucleic acid (DNA, 1.6 mM), amino acids (10 mM), hydrogen peroxide (10 mM), and metal ions (10 mM); in which, the amino acids include: Glutathione (GSH), homocysteine (Hcy), cysteine (Cys), glycine […], alanine (Ala), norvaline (Nor), glutamate (Glu), histidine (his), isoleucine (Iso), leucine (Leu), methionine (Met), phenylalanine (Phe), proline (Pro), serine (Ser), threonine (Thr), tryptophan (Try), and tyrosine (Tyr); and the metal ions include: Ca^2+, Fe^3+, Mg^2+, and Zn^2+.
# [8] = system: HeLa cells; assay: Photodynamic therapy efficiency to HeLa cells, MTT method (Example 16); format: cell-based; settings: 5-20 μM, 30 min in darkness, xenon lamp white light 5 min
# [9] = system: ribonucleic acid; assay: Recognition of ribonucleic acid and deoxyribonucleic acid in solution, absorption/fluorescence spectra (Example 5); format: binding; settings: 10 μM probe
# Procedure: A probe solution at concentration of 10 μM was mixed with a 120 μg/mL ribonucleic acid/deoxyribonucleic acid in PBS for 5 min, respectively, and then ultraviolet-visible absorption spectra and the fluorescence spectra under excitation at 488 nm were measured.
# [10] = system: HeLa cells; assay: Reactive oxygen species in HeLa cells before and after photodynamic therapy, DCFH-DA (Example 9); format: cell-based; settings: 10 μM probe, 10 μM DCFH-DA, mercury lamp 510-560 nm, 3 min
# Procedure: The glass-bottom cell culture dishes covered with HeLa cells prepared in Example 2 were washed three times with PBS, then incubated with 10 μM DCFH-DA in a CO2 incubator in darkness for 30 min. […] The stained cells were observed under a confocal laser scanning microscope, and the fluorescence distribution and intensity changes in the cells before and after the photodynamic therapy (irradiated with mercury lamp at 510-560 nm) were recorded.
# [11] = system: HeLa cells; assay: Flow cytometry fluorescence intensity of HeLa cells before and after photodynamic therapy (Example 15); format: cell-based; settings: 10 μM 30 min, xenon lamp white light 5 min
# Procedure: Three groups of HeLa cells prepared in Example 2 were washed three times with PBS. […] The three groups of cells were digested in darkness and dispersed in PBS, and the number of cells and their fluorescence intensities are recorded and analyzed by flow cytometry was.
# [12] = system: HeLa cells; assay: Cell morphology (DIC) of HeLa cells during photodynamic therapy (Example 12); format: cell-based; settings: 10 μM probe, 510-560 nm, 3 min irradiation
# Procedure: The resulting stained cells and a control group without the photosensitized probe incubation were observed under a fluorescence microscope, and differential interference contrast images of the cells during the photodynamic therapy (irradiated with mercury lamp at 510-560 nm) were recorded.
# [13] = system: HeLa cells; assay: Mitochondrial membrane potential of HeLa cells, JC-10 (Example 11); format: cell-based; settings: 10 μM probe, mercury lamp 510-560 nm
# Procedure: The cells were observed under a confocal laser scanning microscope, and the fluorescence distribution and intensity changes in the cells before and after photodynamic therapy (irradiated by mercury lamp at 510-560 nm) were recorded.
# [14] = Oxygenous radicals by electron spin resonance with DMPO (Example 8, Experiment 4); format: physicochemical; settings: white light 300 mW/cm^2, 5 min
# Procedure: as §1
# DMPO was added to the aqueous solutions of RNA, 2 μM photosensitized probe of the application, 2 μM photosensitized probe+0.8 mM RNA. These solutions were irradiated for 5 min by the white light (300 mW/cm^2) of the xenon lamp. The electron spin resonance spectra before and after irradiation were measured, and the signal intensities indicate the amount of hydroxyl radicals.
# [15] = system: ribonucleic acid; assay: Binding mode with ribonucleic acid, circular dichroism spectra (Example 14); settings: 10 μM in PBS, 5 min
# Procedure: 10 μM (E)-4-(2-(5-methoxy-1H-indole-3-)vinyl)-1-methylquinolinium iodide was mixed with ribonucleic acid and deoxyribonucleic acid in PBS for 5 min, and the circular dichroism spectra were measured.
# [16] = system: 4T1 cell subcutaneous tumor
# Procedure: The 4T1 cells were cultured adherently in a culture medium containing a 10% fetal bovine serum, in a saturated humidity incubator with 5% CO2 at 37° C., and subcultured every 2-3 days. After the cells have grown to the logarithmic phase, the cells were subcutaneously inoculated into the right hind leg of a nude mouse: Specifically, the overgrown cells in the T25 cell culture flask were washed with 1 mL 0.25% trypsin, and then digested with another 1 mL 0.25% trypsin for 1 to 2 min. After adding the fresh medium, the cells were evenly pipetted, counted, centrifuged and washed with PBS three times, the cell density was controlled with the added amount of PBS to make a final concentration of cells to be 1×107 per milliliter. After that the cells were inoculated subcutaneously into the right hind leg of nude mice, each with approximately 1.2×10^6 cells. After the tumors grow for approximately a week, the mice were used for tumor photodynamic therapy and in vivo fluorescence imaging experiments.
# The nude mouse tumor models prepared in Example 7 were divided into three groups for intratumor injection of drugs, with a dosage of 50 μL (1 mM) per tumor volume 100 mm^3.
# After the photodynamic therapy, the tumor tissues are sectioned and stained with TUNEL and HE, and the results are shown in FIG. 19.
# [17] = Hydroxyl radical generation in aqueous solution, APF fluorescence (Example 8, Experiment 3); format: physicochemical; settings: 10 μM APF, white light 300 mW/cm^2, 0-180 s
# Procedure: as §1
# 10 μM APF was added to the aqueous solutions of PBS, 2 μM photosensitized probe, 2 μM photosensitized probe+0.8 mM RNA, 2 μM RB (a commercial singlet oxygen-generating photosensitizer). These solutions were irradiated for 0-180 s with the white light (300 mW/cm^2) of the xenon lamp, the fluorescence spectra at 500-700 nm were measured, and the fluorescence intensities at 514 nm were recorded to indicate the generation rate of hydroxyl radical.
# [18] = 120 μg/mL RNA in PBS, 5 min, excitation 488 nm
compound,measurement,setting,value
"O=C1OC2(c3cc(I)c(O)c(I)c3Oc3c2cc(I)c(O)c3I)c2c(Cl)c(Cl)c(Cl)c(Cl)c21 [RB, Rose Bengal B, reference compound]",absorbance of ABDA at 378 nm with light irradiation,"[1]; 2 μM, without RNA",decreases much faster
"COc1ccc2[nH]cc(/C=C/c3cc[n+](C)c4ccccc34)c2c1.[I-] [photosensitized probe 1, (E)-4-(2-(5-methoxy-1H-indole-3-)vinyl)-1-methylquinolinium iodide]",fluorescence of the cells treated with RNase versus control group,[2],much weaker than that of the control group
same,dark toxicity,[3]; 24 h,very low and negligible
same,cell viability in darkness,"[3]; incubation 24 h, darkness",~100%
same,rate of reactive oxygen species production (DCFH fluorescence at 529 nm) versus probe alone and RB,[4],significantly higher
same,fluorescence of live cells stained in darkness with increasing incubation time,[5]; darkness 10-120 min,relatively weak red fluorescence only in the cytoplasm regions
same,fluorescence with increasing light irradiation time,"[5]; stained 30 min, 510-560 nm green light 10 s-5 min",the fluorescence gradually increases
same,fluorescence of live cells after light irradiation,"[5]; stained 30 min, mercury lamp white light 5 min, 488 nm excitation",strong red fluorescence in the cytoplasm and nucleolus region
same,fluorescence of live cells without light irradiation,"[5]; stained in darkness 30 min, 488 nm excitation, confocal",weak red fluorescence only in the cytoplasm region
same,location of the probe before photodynamic therapy,[6]; darkness,located in the mitochondria
same,location of the probe after photodynamic therapy,[6]; mercury lamp 510-560 nm,migration of the photosensitized probe to the cytoplasm and nucleolus regions
same,increase of fluorescence intensity after binding with ribonucleic acid compared with the probe itself,"[7]; RNA 1.6 mM in PBS, 5 min, excitation 500 nm, emission 600 nm",more than 100 times
same,fluorescence with RNA compared with deoxyribonucleic acid,"[7]; RNA 1.6 mM, DNA 1.6 mM",significantly stronger than that of the probe after binding with deoxyribonucleic acid
same,fluorescence response to other biomolecules,"[7]; amino acids, hydrogen peroxide, metal ions 10 mM",no obvious fluorescence response
same,cell viability after photodynamic therapy,[8],greatly reduced
same,fluorescence emission peak after interacting with ribonucleic acid,[9]; [18],around 600 nm
same,increase of fluorescence intensity in RNA solution compared with the probe itself,[9]; [18],approximately 40 times
same,fluorescence with RNA compared with deoxyribonucleic acid,[9]; 120 μg/mL RNA or DNA in PBS,significantly stronger than the fluorescence after binding with deoxyribonucleic acid
same,intensity of green fluorescence of DCFH-DA (reactive oxygen species level in the cells) after irradiation,[10],increases remarkably
same,absorbance of ABDA at 378 nm with light irradiation,[1]; 2 μM probe + 0.8 mM RNA,slight decrease
same,singlet oxygen generation compared with RB,"[1]; 2 μM, white light 300 mW/cm^2",generates less singlet oxygen
same,absorbance of ABDA at 378 nm with light irradiation,"[1]; 2 μM, without RNA",slight decrease
same,fluorescence intensity of the cells after photodynamic therapy versus group without photodynamic therapy,[11],enhanced significantly
same,cell morphology after light irradiation (symbol of cell apoptosis),[12],many vesicles form near cell membrane
same,mitochondria membrane potential after photodynamic therapy (JC-10 aggregates fluorescence),[13],significantly reduced
same,oxygenous radicals generation (ESR),[14]; 2 μM probe + 0.8 mM RNA,more oxygenous radicals can be generated
same,oxygenous radicals generation (ESR),[14]; 2 μM probe alone,can effectively generate oxygenous radicals
same,binding mode with ribonucleic acid,[15],minor groove binding
same,circular dichroism spectrum after being mixed with DNA,[15],no obvious change
same,circular dichroism spectrum after being mixed with RNA,[15],negative Cotton effect
same,tumor growth (tumor volume),"[16]; 1+Light, within 16 days of therapy",significantly inhibited
same,fluorescence intensity of the tumor site with the progress of the photodynamic therapy,"[16]; intratumor injection 50 μL (1 mM) per 100 mm^3, 0-10 min during and 10-60 min after therapy",increases significantly
same,fluorescence at the tumor site after the photodynamic therapy,[16]; probe with light irradiation,bright fluorescence at the tumor site
same,TUNEL staining of tumor tissue section,[16]; probe with photodynamic therapy,died in the apoptosis pathway
same,HE staining of tumor tissue section,[16]; probe with photodynamic therapy (third group),seriously damaged
same,fluorescence at the tumor site without the photodynamic therapy,"[16]; probe, fed in darkness",weak fluorescence at the tumor site
same,hydroxyl radicals generation (APF fluorescence at 514 nm),[17]; 2 μM probe + 0.8 mM RNA,more hydroxyl radicals are generated
same,hydroxyl radicals generation (APF fluorescence at 514 nm),[17]; 2 μM probe alone,can effectively generate hydroxyl radicals
